In ChEMBL document CHEMBL5291721, “A preclinical secondary pharmacology resource illuminates target-adverse drug reaction associations of marketed drugs” (Nat Commun, 2023) one finds AC50 data, which are given here for 37 compounds.

SMILES strings stand for the structures.

For orientation: AC50 means the concentration at which the activity in the assay is half-maximal.

The target in assay [1] is T1, Alpha-1A adrenergic receptor (Homo sapiens, UniProt P35348).
T1 sequence (P35348 whole entry): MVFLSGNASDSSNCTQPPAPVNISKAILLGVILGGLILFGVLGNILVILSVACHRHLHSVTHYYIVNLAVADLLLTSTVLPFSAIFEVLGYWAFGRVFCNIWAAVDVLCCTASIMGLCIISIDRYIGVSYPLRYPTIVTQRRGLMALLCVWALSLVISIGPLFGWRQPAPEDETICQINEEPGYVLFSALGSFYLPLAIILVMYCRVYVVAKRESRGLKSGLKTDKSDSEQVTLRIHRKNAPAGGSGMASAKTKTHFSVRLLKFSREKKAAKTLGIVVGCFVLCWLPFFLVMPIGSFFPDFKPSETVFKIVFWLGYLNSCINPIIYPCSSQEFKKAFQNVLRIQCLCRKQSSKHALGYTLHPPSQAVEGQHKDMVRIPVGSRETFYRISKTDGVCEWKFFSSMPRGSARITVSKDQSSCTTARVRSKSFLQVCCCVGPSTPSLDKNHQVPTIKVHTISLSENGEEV
Type of assay: functional, cell-based.

For the next assay, the target named is T2, Progesterone receptor (Homo sapiens, UniProt P06401).
T2 sequence (P06401 whole entry): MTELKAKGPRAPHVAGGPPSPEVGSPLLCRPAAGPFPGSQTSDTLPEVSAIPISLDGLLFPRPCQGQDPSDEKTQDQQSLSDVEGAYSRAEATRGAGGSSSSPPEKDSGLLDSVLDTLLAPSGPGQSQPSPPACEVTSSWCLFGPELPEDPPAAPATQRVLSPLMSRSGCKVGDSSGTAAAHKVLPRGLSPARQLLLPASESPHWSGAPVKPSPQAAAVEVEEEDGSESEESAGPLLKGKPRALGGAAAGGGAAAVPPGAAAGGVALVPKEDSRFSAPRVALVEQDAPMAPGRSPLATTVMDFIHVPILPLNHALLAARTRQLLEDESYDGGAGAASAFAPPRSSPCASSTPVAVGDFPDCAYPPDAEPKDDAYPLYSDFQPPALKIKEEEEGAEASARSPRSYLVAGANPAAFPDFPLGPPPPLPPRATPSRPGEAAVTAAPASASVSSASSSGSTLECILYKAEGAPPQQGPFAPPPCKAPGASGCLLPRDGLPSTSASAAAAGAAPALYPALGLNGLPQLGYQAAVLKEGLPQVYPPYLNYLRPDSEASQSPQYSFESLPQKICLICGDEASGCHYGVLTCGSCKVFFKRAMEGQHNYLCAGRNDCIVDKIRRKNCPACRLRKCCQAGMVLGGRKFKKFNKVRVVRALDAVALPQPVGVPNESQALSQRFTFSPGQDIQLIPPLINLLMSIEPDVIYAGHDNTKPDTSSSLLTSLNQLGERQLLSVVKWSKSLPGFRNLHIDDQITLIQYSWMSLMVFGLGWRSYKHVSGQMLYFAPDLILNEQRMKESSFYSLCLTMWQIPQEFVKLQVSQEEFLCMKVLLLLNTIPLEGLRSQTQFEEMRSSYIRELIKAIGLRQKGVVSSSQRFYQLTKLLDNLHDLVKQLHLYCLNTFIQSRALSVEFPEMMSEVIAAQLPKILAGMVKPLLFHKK
The assay is classed as functional.

Assay [2] addresses T3, Muscarinic acetylcholine receptor M2 (Homo sapiens, UniProt P08172).
T3 sequence (P08172 whole entry): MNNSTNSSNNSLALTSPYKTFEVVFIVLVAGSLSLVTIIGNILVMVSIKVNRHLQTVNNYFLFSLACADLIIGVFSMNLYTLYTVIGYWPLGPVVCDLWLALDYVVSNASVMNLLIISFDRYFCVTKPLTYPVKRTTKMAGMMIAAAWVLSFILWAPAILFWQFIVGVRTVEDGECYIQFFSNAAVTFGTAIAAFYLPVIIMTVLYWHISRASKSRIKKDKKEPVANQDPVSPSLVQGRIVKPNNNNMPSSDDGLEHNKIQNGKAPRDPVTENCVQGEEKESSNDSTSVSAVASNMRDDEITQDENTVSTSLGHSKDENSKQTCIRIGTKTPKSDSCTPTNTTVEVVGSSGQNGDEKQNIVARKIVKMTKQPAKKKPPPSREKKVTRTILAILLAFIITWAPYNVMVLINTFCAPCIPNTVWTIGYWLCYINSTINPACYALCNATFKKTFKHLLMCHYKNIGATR
The assay is classed as functional, cell-based.

Another assay concerns the target Histamine H3 receptor (Homo sapiens, UniProt Q9Y5N1).
Assay [3] concerns the target Sodium-dependent dopamine transporter (Homo sapiens, UniProt Q01959).
The target in assay [4] is Growth hormone secretagogue receptor type 1 (Homo sapiens, UniProt Q92847).
Growth hormone secretagogue receptor type 1, sequence (Q92847 whole entry): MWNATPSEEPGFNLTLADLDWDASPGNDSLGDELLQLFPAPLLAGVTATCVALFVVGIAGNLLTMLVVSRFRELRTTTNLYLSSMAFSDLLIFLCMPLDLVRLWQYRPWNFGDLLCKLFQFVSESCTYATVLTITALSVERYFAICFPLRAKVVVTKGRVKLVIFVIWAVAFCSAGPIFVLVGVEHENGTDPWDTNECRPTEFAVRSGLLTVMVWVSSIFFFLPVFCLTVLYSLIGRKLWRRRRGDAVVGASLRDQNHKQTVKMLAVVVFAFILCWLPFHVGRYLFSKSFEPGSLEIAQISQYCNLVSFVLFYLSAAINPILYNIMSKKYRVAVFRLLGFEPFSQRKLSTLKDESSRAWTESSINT
In assay [5] the target is Delta-type opioid receptor (Homo sapiens, UniProt P41143).
Delta-type opioid receptor, sequence (P41143 whole entry): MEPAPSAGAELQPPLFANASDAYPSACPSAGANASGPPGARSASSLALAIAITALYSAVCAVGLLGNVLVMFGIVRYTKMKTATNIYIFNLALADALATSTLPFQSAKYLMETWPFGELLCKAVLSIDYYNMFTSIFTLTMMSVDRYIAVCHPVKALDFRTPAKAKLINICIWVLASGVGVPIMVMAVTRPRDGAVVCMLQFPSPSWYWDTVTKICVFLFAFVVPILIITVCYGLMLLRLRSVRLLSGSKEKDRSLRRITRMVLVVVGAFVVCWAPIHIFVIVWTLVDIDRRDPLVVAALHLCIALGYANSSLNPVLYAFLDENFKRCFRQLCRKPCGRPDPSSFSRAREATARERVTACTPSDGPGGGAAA
A further assay deals with D(1A) dopamine receptor (Homo sapiens, UniProt P21728). Type of assay: functional, cell-based.
D(1A) dopamine receptor, sequence (P21728 whole entry): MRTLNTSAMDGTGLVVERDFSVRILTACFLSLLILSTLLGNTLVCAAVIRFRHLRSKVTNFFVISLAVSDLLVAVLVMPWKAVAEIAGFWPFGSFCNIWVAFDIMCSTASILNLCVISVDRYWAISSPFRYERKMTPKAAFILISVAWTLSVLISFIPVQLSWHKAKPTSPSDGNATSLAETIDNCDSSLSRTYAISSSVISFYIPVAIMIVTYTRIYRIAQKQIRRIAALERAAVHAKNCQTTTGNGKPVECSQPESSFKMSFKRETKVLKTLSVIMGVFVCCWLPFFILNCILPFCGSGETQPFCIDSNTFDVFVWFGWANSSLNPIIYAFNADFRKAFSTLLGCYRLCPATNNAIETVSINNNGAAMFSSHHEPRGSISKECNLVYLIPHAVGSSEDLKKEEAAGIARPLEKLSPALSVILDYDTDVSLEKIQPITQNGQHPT
Assay [6] concerns the target Voltage-dependent L-type calcium channel subunit alpha-1C (Rattus norvegicus, UniProt P22002). Type of assay: functional.
Assay [7] has as its target Gamma-aminobutyric acid receptor subunit alpha-1 (Rattus norvegicus, UniProt P62813).
The target in assay [8] is T3, Muscarinic acetylcholine receptor M2. The assay is classed as functional, cell-based. This is another data set of the same source.
Also: assay procedure not described here.

Sodium-dependent dopamine transporter, sequence (Q01959 whole entry): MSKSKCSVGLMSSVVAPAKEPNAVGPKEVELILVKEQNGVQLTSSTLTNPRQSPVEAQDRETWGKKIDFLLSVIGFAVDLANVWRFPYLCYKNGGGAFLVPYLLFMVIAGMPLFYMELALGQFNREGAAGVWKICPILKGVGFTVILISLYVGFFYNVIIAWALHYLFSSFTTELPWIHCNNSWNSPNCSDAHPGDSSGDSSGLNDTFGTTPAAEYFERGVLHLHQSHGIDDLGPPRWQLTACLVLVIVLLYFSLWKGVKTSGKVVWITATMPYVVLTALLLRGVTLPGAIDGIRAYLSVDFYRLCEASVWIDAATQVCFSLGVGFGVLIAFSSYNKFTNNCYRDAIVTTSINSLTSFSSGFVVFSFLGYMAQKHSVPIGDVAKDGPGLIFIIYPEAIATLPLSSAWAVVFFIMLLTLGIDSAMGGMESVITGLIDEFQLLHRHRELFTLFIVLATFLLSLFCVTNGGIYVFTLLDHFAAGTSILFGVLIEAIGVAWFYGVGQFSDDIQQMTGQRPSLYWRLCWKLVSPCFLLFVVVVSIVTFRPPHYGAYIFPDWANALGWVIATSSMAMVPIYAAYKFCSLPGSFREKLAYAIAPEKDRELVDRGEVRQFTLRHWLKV
Histamine H3 receptor, sequence (Q9Y5N1 whole entry): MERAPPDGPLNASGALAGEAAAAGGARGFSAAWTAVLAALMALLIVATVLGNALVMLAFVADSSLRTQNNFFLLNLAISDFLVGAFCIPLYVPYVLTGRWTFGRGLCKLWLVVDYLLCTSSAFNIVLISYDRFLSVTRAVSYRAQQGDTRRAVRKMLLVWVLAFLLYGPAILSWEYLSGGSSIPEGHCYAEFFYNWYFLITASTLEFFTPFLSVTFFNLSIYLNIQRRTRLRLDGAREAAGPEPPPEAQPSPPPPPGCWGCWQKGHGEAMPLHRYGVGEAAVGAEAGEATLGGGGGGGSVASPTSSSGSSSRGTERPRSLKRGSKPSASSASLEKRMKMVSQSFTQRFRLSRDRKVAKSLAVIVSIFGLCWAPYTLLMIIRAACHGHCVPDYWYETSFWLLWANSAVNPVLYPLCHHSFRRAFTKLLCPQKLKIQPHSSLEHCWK
Voltage-dependent L-type calcium channel subunit alpha-1C, sequence (P22002 whole entry): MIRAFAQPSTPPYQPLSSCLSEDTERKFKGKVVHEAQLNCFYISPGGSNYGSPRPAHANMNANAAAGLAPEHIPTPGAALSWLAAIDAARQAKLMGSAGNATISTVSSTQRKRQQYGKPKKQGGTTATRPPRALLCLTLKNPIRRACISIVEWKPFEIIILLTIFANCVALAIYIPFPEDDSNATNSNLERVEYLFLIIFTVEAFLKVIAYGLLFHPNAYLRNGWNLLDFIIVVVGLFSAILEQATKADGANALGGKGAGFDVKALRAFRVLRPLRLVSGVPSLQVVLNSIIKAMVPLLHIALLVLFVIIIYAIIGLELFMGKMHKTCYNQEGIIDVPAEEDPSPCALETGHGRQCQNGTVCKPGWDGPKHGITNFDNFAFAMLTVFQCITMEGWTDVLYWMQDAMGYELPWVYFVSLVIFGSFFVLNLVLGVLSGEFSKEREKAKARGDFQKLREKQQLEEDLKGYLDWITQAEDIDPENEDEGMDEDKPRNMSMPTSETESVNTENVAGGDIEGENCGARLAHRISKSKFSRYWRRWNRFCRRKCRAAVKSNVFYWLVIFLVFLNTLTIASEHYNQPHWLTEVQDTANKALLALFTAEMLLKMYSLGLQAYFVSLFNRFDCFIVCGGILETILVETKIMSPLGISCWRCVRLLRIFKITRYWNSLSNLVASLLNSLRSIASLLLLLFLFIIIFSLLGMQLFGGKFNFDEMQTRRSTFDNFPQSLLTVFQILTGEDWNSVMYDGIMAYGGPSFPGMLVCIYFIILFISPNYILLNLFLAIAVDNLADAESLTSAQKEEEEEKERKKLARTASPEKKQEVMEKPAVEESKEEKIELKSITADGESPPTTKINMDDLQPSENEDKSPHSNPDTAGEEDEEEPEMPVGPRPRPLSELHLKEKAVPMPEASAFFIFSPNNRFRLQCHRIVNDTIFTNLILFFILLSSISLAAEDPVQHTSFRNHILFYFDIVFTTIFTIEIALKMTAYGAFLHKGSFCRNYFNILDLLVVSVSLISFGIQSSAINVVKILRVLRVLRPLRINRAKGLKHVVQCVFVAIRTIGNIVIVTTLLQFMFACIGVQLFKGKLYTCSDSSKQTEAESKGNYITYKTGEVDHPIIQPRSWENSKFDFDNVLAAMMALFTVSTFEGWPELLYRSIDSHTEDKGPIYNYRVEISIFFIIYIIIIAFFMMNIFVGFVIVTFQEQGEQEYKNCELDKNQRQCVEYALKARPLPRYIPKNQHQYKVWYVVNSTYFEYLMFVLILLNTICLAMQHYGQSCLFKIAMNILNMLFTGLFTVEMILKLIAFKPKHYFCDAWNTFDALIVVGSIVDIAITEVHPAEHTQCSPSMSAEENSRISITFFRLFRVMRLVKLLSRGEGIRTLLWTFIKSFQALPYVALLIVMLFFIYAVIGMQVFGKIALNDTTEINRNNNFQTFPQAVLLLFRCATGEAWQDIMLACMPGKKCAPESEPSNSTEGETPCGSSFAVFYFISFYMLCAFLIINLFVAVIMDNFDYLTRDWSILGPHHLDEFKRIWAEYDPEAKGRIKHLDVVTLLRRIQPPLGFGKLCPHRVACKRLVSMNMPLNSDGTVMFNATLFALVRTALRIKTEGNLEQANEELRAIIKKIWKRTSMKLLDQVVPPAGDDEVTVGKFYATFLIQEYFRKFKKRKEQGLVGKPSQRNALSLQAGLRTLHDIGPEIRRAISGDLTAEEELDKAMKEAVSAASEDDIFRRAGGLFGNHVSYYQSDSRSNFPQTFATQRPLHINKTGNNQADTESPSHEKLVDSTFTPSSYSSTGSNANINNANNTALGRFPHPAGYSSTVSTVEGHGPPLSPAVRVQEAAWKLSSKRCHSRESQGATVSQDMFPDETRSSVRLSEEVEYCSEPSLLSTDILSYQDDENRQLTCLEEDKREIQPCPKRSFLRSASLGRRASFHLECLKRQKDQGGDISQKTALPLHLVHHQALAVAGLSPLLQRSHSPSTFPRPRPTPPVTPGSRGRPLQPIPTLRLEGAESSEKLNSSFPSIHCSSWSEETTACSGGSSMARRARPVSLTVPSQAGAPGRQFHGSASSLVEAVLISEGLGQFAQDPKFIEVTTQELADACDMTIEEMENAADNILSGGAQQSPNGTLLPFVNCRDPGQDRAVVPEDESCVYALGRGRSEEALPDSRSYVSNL
Gamma-aminobutyric acid receptor subunit alpha-1, sequence (P62813 whole entry): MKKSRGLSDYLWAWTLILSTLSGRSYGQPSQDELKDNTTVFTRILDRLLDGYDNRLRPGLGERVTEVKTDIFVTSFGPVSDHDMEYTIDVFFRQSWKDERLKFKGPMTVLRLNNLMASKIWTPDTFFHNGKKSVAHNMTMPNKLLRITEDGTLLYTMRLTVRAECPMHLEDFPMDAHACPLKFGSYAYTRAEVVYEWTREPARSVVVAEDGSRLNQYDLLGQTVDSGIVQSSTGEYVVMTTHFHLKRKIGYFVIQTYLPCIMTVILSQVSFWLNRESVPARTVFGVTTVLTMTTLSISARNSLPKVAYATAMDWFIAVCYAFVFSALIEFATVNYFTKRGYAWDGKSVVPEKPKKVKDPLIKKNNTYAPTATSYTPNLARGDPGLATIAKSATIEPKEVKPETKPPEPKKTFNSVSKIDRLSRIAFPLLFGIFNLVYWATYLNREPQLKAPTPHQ

As to `COc1c2ccoc2cc2oc(=O)ccc12` [BERGAPTEN], the concentration at half-maximal activity (AC50) in [1] is over 30 µM.
The same measure, in the same setting: under `OC[C@H]1O[C@@H](c2ccc(Cl)c(Cc3ccc(O[C@H]4CCOC4)cc3)c2)[C@H](O)[C@@H](O)[C@@H]1O` [EMPAGLIFLOZIN] stands over 30 µM; under `CNC(=O)Oc1cccc2ccccc12` [CARBARIL], over 30 µM; under `CC1=C(/C=C/C(C)=C/C=C/C(C)=C/C(=O)O)C(C)(C)CCC1` [TRETINOIN], over 30 µM.
In the case of `CCn1cc(C(=O)O)c(=O)c2cc3c(cc21)OCO3` [OXOLINIC ACID], the AC50 in [1] was over 30 µM.
Regarding `COc1ccc(CC2c3cc(OC)c(OC)cc3CC[N+]2(C)CCC(=O)OCCCCCOC(=O)CC[N+]2(C)CCc3cc(OC)c(OC)cc3C2Cc2ccc(OC)c(OC)c2)cc1OC` (centres undefined), the AC50 at Progesterone receptor is over 30 µM; in assay [2] it was over 30 µM; at Histamine H3 receptor, over 30 µM; in assay [3] it was over 30 µM; in [4], 11.2 µM; in assay [5], over 30 µM. Besides, the concentration at half-maximal activity (AC50) (at D(1A) dopamine receptor; in assay [6]; in assay [7]; in [8]) was over 30 µM each time.
Turning to `Nc1ccc(C(=O)Oc2ccccc2)c(O)c1` [PHENYL AMINOSALICYLATE], the concentration at half-maximal activity (AC50) in [1] is over 30 µM.
For the compound `CC(C)(C)NCC(O)c1cc(O)cc(O)c1` (centres undefined) [TERBUTALINE], the concentration at half-maximal activity (AC50) (on Progesterone receptor; at Histamine H3 receptor; in assay [3]; in [4]) was over 30 µM each time.
For the compound `FC(F)(F)c1ccc(CNc2ccc(Cc3c[nH]c4ncc(Cl)cc34)cn2)cn1` [PEXIDARTINIB], the AC50 in assay [1] is over 30 µM.
Still for that read-out and setting: the figure for `C[C@H]1O[C@@H](n2cc(F)c(=O)[nH]c2=O)[C@H](O)[C@@H]1O` [DOXIFLURIDINE] is over 30 µM.
On the same count and under the same terms, under `O=C1/C(=C2\Nc3ccc(S(=O)(=O)O)cc3C2=O)Nc2ccc(S(=O)(=O)O)cc21` [INDIGOTINDISULFONATE] stands over 30 µM.
Same read-out and setting: under `C[N+](C)(C)C[C@H](O)CC(=O)[O-]` [LEVOCARNITINE] stands over 30 µM; under `CCOC(=O)C1=C[C@@H](OC(CC)CC)[C@H](NC(C)=O)[C@@H](N)C1` [OSELTAMIVIR], over 30 µM.
Compound `Cc1onc(-c2ccccc2)c1C(=O)N[C@@H]1C(=O)N2[C@@H]1SC(C)(C)[C@@H]2C(=O)O` [OXACILLIN] returned an AC50 in assay [1] of over 30 µM.
The same measure, in the same setting: under `O=C(O)c1cc(/N=N/c2ccc(O)c(C(=O)O)c2)ccc1O` [OLSALAZINE] stands over 30 µM; under `CC[C@H](C)C[C@H](C)CCCCCCCCC(=O)N[C@H]1C[C@@H](O)[C@@H](NCCN)NC(=O)[C@@H]2[C@@H](O)CCN2C(=O)[C@H]([C@H](O)CCN)NC(=O)[C@H]([C@H](O)[C@@H](O)c2ccc(O)cc2)NC(=O)[C@@H]2C[C@@H](O)CN2C(=O)[C@H]([C@@H](C)O)NC1=O` [CASPOFUNGIN], over 30 µM; under `CN1CCC(=C2c3ccccc3Sc3ccccc32)CC1` [PIMETHIXENE], over 30 µM.
Same read-out and setting: under `C=CCN1CC[C@]23CCCC[C@H]2[C@H]1Cc1ccc(O)cc13` [LEVALLORPHAN] stands over 30 µM; under `CC(C)C[C@H](NC(=O)CNC(=O)c1cc(Cl)ccc1Cl)B(O)O` [IXAZOMIB], over 30 µM.
With `[H]/N=C(\N/C(=N/[H])Nc1ccc(Cl)cc1)NC(C)C` [PROGUANIL], the half-maximal activity concentration (AC50) in assay [1] is over 30 µM.
The same measure, in the same setting: under `CC(C)OC(=O)CCC/C=C\C[C@@H]1[C@@H](/C=C/C(F)(F)COc2ccccc2)[C@H](O)C[C@@H]1O` [TAFLUPROST] stands over 30 µM; under `OC[C@H]1O[C@@H](c2ccc(F)c(Cc3cc4ccccc4s3)c2)[C@H](O)[C@@H](O)[C@@H]1O` [IPRAGLIFLOZIN], over 30 µM.
In [1], `N[C@@H](CO)C(=O)O` [SERINE] showed an AC50 of over 30 µM.
In assay [1], `CC(CN1CC(=O)NC(=O)C1)N1CC(=O)NC(=O)C1` (centres undefined) [RAZOXANE] displayed a half-maximal activity concentration (AC50) of over 30 µM.
The same measure, in the same setting: the figure for `CCc1nc(C(N)=O)c(Nc2ccc(N3CCC(N4CCN(C)CC4)CC3)c(OC)c2)nc1NC1CCOCC1` [GILTERITINIB] is over 30 µM; for `C/C=C/C/C=C/CCC(=O)[C@H]1O[C@H]1C(N)=O` [CERULENIN] it is over 30 µM; for `CC(C)(O)CNc1nc(Nc2ccnc(C(F)(F)F)c2)nc(-c2cccc(C(F)(F)F)n2)n1` [ENASIDENIB] it is over 30 µM.
Same read-out and setting: the figure for `CC[C@H](c1ccc(O)cc1)[C@@H](CC)c1ccc(O)cc1` [HEXESTROL] is 25.9 µM; for `O=C(O)COc1ccc(C(=O)c2cccs2)c(Cl)c1Cl` it is over 30 µM.
The same measure, in the same setting: under `C[C@@H]1C[C@H]2[C@@H]3CCC4=CC(=O)C=C[C@]4(C)[C@@]3(Cl)[C@@H](O)C[C@]2(C)[C@@]1(OC(=O)c1ccco1)C(=O)CCl` [MOMETASONE FUROATE] stands over 30 µM; under `CN(C)[C@@H]1C(O)=C(C(N)=O)C(=O)[C@@]2(O)C(O)=C3C(=O)c4c(O)ccc(Cl)c4[C@@](C)(O)[C@H]3C[C@@H]12` [CHLORTETRACYCLINE], over 30 µM.
Compound `CC[C@H]1OC(=O)[C@H](C)C(=O)[C@H](C)[C@@H](O[C@@H]2O[C@H](C)C[C@H](N(C)C)[C@H]2O)[C@](C)(OC)C[C@@H](C)C(=O)[C@H](C)[C@H]2N(CCCCn3cnc(-c4cccnc4)c3)C(=O)O[C@]12C` [TELITHROMYCIN] had an AC50 in assay [1] of over 30 µM.
On the same count and under the same terms, the figure for `CC(=O)Oc1cc(C(F)(F)F)ccc1C(=O)O` [TRIFLUSAL] is over 30 µM; for `Cc1ccccc1C(=O)Nc1ccc(C(=O)N2CCCC(N(C)C)c3ccccc32)cc1` (centres undefined) [MOZAVAPTAN] it is over 30 µM; for `C[C@]1(Cn2ccnn2)[C@H](C(=O)O)N2C(=O)C[C@H]2S1(=O)=O` [TAZOBACTAM] it is over 30 µM.
As for `CN1CCCCC1CCN1c2ccccc2Sc2ccc([S+](C)[O-])cc21` (centres undefined) [MESORIDAZINE], in assay [1], the half-maximal activity concentration (AC50) is over 30 µM.
On the same count and under the same terms, under `N[C@@H](CS)C(=O)O` [CYSTEINE] stands over 30 µM.
